Series [1] has as its target cathepsin L (CTSL) (Homo sapiens, UniProt P07711). Briefly: Host protease inhibitory activity assay, CTSL. The conditions noted are these: 50 µM, p < 0.001.
Method: (§1) Similarly, CTSL (Sino Biological, Beijing, China) was diluted, activated, and incubated with the test compounds before Z-Phe-Arg-AMC was added, with fluorescence measurements taken under the same conditions. For CTRC (Novoprotein, Suzhou, China), a 5 µg/mL solution was incubated with the test compounds in Tris buffer, then activated with trypsin (Sigma, Saint Louis, USA). The reaction was initiated using 100 µM Succinyl-Ala-Ala-Pro-Phe-p-nitroanilide (NJPeptide Biotech, Nanjing, China), and absorbance was measured at 405 nm.
In series [2] the target is T1, chymotrypsin C (CTRC) (Homo sapiens, UniProt Q99895).
T1 sequence (Q99895 30-268): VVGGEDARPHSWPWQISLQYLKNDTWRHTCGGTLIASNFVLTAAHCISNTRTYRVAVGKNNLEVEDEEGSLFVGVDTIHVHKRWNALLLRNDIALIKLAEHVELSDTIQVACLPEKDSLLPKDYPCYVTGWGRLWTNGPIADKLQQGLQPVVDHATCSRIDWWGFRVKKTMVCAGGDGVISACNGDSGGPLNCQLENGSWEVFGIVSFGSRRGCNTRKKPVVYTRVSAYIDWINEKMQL
Kind of series: Host protease inhibitory activity assay, CTRC. The settings on record: 50 µM, p < 0.001.
Method: as §1

The target in series [3] is S-RBD (Severe acute respiratory syndrome coronavirus 2, UniProt P0DTC2). Kind of series: Surface plasmon resonance, immobilized S-RBD. It counts as binding, SARS-CoV-2. The conditions noted are these: SPR; for Kd: Langmuir 1:1 binding model; for kon: read-out: ka, S-RBD. (Surface plasmon resonance follows binding to a sensor surface in real time, without labels.)
Series [4] concerns hACE2-HEK293T cells. Kind of series: Cytotoxicity, CCK-8, hACE2-HEK293T cells.
The nature of series [5]: Cytotoxicity, CCK-8, hACE2-HEK293T cells. The settings on record: human.
The target in series [6] is T2, SARS-CoV-2 3CL^pro (Severe acute respiratory syndrome coronavirus 2, UniProt P0DTD1). Kind of series: biochemical.
A short description of series [7]: Cytotoxicity, CCK-8, Vero-E6 cells. The settings on record: African green monkey.
Series [8] relates to Vero-E6 cells. Briefly: Cytotoxicity, CCK-8, Vero-E6 cells. The conditions noted are these: at 200 µM.
On the set-up of series [9]: method as in PMID 31557009. The settings on record: cited from earlier work.
Series [10] addresses ACE2 (Homo sapiens, UniProt Q9BYF1). Briefly: Surface plasmon resonance, immobilized ACE2. The settings on record: for kon / koff: SPR; for kon: read-out: binding rate constant (ka), ACE2; for koff: read-out: dissociation rate constant (kd), ACE2. It counts as binding. On the procedure: Binding affinities between compounds and ACE2 or S-RBD were evaluated using a Biacore T200 instrument (Cytiva, UK). […] A mixture of 50 mM NHS and 200 mM EDC was injected to activate the surface, after which 20 µg/mL ACE2 was immobilized to achieve 15,020 RU, and 30 µg/mL S-RBD reached 7193 RU. Surface blocking was performed using 1 M ethanolamine at pH 8.5. Delphinidin with 5% DMSO was injected into the flow system and analyzed for 120 s, followed by 300 s of dissociation. Glycine–HCl at pH 3.0 was used for surface regeneration between analyte injections. Data were processed using double reference subtraction and solvent corrections. Binding affinities were determined using a Langmuir 1:1 binding model in Biacore Evaluation software (Cytiva, UK).

The subject of series [11] is SARS-CoV-2-S pseudovirus. Kind of series: microbe, parasite or virus in culture. It counts as cell-based. The settings on record: for inhibition of attachment of SARS-CoV-2-S pseudovirus to ACE2-expressing HEK293T cells: 5 µM and 50 µM, p < 0.001; for IC50: Pseudovirus.
Series [12] deals with T2, SARS-CoV-2 3CL^pro.
For series [13], the target named is cathepsin B (CTSB) (Homo sapiens, UniProt P07858). Kind of series: Host protease inhibitory activity assay, CTSB. The settings on record: 50 µM.
Method: The activities of cathepsin B (CTSB), cathepsin L (CTSL), and chymotrypsin C (CTRC) were assessed following established methods [35, 36]. […] After further dilution to 500 pM, CTSB was incubated with the test compounds for 30 min, followed by the addition of 5 µM Z-Phe-Arg-AMC (NJPeptide Biotech, Nanjing, China) to initiate the reaction. Fluorescence was recorded using a Cytation 5 reader at excitation/emission wavelengths of 360/460 nm.
Series [14] has as its target T2, SARS-CoV-2 3CL^pro. Kind of series: biochemical. It counts as binding.
In series [15] the test system is HCoV-229E. Briefly: Anti HCoV-229E activity in BEL-7402 cells (CPE, RT-qPCR). It counts as cell-based.
Details of series [16]: method as in PMID 25980422. The conditions noted are these: cited from earlier work.
In series [17] the test system is BEL-7402 cells. Kind of series: Maximum non-toxic concentration in BEL-7402 cells (CPE monitoring).

Where only a bound is given, the exact number is not on record here.

Data on two molecules can be found in paper PMC12165925 (Natural Products and Bioprospecting, 2025).

Sequence of ACE2 (Q9BYF1 18-805): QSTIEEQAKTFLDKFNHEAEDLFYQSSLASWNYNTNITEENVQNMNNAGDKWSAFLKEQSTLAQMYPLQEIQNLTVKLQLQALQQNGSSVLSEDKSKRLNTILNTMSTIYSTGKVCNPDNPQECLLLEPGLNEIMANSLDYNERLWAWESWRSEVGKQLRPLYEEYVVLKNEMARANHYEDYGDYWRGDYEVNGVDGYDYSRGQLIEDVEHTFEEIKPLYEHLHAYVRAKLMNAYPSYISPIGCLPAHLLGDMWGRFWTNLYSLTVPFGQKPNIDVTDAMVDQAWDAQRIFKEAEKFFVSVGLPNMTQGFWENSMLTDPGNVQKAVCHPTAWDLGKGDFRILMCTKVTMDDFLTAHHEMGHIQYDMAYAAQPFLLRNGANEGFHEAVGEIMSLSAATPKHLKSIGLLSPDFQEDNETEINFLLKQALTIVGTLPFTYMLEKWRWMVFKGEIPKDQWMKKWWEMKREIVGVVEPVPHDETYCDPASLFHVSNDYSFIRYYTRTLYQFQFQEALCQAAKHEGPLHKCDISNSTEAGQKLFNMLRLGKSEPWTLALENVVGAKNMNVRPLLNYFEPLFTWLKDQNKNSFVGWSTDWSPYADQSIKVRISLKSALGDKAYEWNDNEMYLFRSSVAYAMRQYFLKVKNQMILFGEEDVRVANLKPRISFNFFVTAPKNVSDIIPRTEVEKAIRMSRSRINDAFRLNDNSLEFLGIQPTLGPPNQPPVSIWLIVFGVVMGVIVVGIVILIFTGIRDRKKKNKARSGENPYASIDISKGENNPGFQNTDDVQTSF
Sequence of cathepsin L (CTSL) (P07711 114-333): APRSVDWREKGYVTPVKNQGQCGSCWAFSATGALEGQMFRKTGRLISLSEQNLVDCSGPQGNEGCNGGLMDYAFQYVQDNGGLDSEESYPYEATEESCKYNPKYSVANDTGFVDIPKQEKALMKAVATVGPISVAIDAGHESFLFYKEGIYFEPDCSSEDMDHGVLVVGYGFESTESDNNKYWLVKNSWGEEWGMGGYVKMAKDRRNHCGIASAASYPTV

Broadly, the Kd is the equilibrium constant for the complex coming apart. As usually defined, the CC50 is the concentration giving 50% cytotoxicity. As usually defined, the Ki is the dissociation constant of the complex between target and ligand, obtained from inhibition or displacement. For orientation: IC50 means the concentration at which inhibition is half-maximal. For `Oc1cc(O)c2cc(O)c(-c3cc(O)c(O)c(O)c3)[o+]c2c1` [Delphinidin], the “inhibition of CTSL” value in [1] is reported as “strong inhibitory effect”. Further, the “inhibition of CTRC” value in series [2] was “strong inhibitory effect”. For the same molecule, in series [3], the “kd, S-RBD” value is recorded as 1.14 × 10^–3 s^−1; the Kd stood at 2.98 µM; the kon turned out to be 383 M⁻¹ s⁻¹. Moreover, the “cytotoxicity against hACE2-HEK293T cells” value in series [4] (screening concentrations 5 µM and 50 µM) was “not significantly cytotoxic”. The same molecule displayed a CC50 in series [5] of more than 200 µM. The same molecule returned a Ki in [6] of 0.93 µM. This molecule also showed an IC50 in [6] (IC50, SARS-CoV-2 3CL^pro) of 1.54 ± 0.38 µM. Also, the IC50 in series [6] (IC50, SARS-CoV-2 3CL^pro (TDI)) was determined as 4.39 ± 0.53 µM. The molecule also yielded a CC50 at 24 h in series [7] of more than 200 µM. In addition, in [8], the “cytotoxicity on Vero-E6 cells” value is “no toxicity”. Besides, the bioavailability entry in [9] is listed as “low”. Besides, in series [10], the Kd came out at 6.64 µM, the kon amounted to 309 M⁻¹ s⁻¹ and the koff worked out at 0.00205 s⁻¹. Moreover, in series [11], the “selectivity index (SI), [CC50]/[IC50]” value was more than 4.41; the “inhibition of attachment of SARS-CoV-2-S pseudovirus to ACE2-expressing HEK293T cells” value is recorded as “significantly inhibited”; the 50% inhibitory concentration (IC50) stood at 45.4 ± 7.09 µM. In series [12], the “IC50 shift, 3 vs 30 min pre-incubation” value was 2.85 times and the “inhibition mechanism on SARS-CoV-2 3CL^pro” value is “non-competitive inhibitor”. In series [13], the “inhibition of CTSB” value is recorded as “did not inhibit”. In [14], this molecule returned a dissociation constant (Kd) of 24.5 µM. Also, the kon in series [14] (read-out: Ka, SARS-CoV-2 3CL^pro) worked out at 296 M⁻¹ s⁻¹.
Consider `C[C@@H]1O[C@@H](O[C@H]2[C@H](OC(=O)[C@]34CCC(C)(C)C[C@H]3C3=CC[C@@H]5[C@@]6(C)C[C@H](O)[C@H](O[C@@H]7O[C@H](CO)[C@@H](O)[C@H](O)[C@H]7O)C(CO)(CO)[C@@H]6CC[C@@]5(C)[C@]3(C)C[C@H]4O)OC[C@H](O)[C@@H]2O)[C@H](O)[C@H](O)[C@H]1O[C@@H]1OC[C@@H](O)[C@H](O)[C@H]1O` [DPD, Deapio platycodin D], for which, in [3], the Kd is 379 µM and the kon turned out to be 103 M⁻¹ s⁻¹. The “cytotoxicity against hACE2-HEK293T cells” value in series [4] (5 µM) is reported as “no cytotoxicity”. The “cytotoxicity against hACE2-HEK293T cells” value in series [4] (50 µM, p < 0.001) was “had cytotoxicity”. Also, the CC50 in series [5] stood at 35.5 ± 1.77 µM. Further, the “antiviral activity against HCoV-229E” value in series [15] (12.50 µM (MNTC), BEL-7402 cells, RT-qPCR) is listed as “significant antiviral activity”. Moreover, the IC50 in series [15] (Human coronavirus 229E, Bel-7402, read-out: IC50, HCoV-229E replication) was 3.3 µM. For the same molecule, in series [10], the Kd is 358 µM, the kon stood at 54.6 M⁻¹ s⁻¹ and the koff stood at 0.0196 s⁻¹. Further, in series [11], the “selectivity index (SI), [CC50]/[IC50]” value worked out at 25.73; the “inhibition of attachment of SARS-CoV-2-S pseudovirus to ACE2-expressing HEK293T cells” value is “significantly inhibited”; inhibition was half-maximal at 1.38 ± 0.46 µM (IC50). Moreover, the “inhibition of SARS-CoV-2 3CL^pro” value in series [12] is “lack of inhibition”. Moreover, the Tmax result in series [16] (oral administration ref 60) is reported as “under 1 h”. Further, the elimination from tissues result in series [16] (particularly lung tissue ref 60) was “slow elimination”. The “maximum non-toxic concentration (MNTC)” value in series [17] is 12.50 µM.
